Results as given in paper PMC9636434, “Discovery of small molecule agonists of the Relaxin Family Peptide Receptor 2” (Communications Biology, 2022).
Where “and” joins values, the source holds several entries; their conditions need not be identical. Equal entries are not always repeated. Where two headings read alike, the source gives them in different places.

How the values were obtained:
[1] = biological target: chimera RXFP1-2 (extracellular domain of RXFP1, transmembrane domain of RXFP2) (Homo sapiens, UniProt Q8WXD0); test: HTRF cAMP assay in HEK293T cells transiently transfected with chimera RXFP1-2; assay type: cell-based; details: for Emax: HEK-293T
Chain of chimera RXFP1-2 (extracellular domain of RXFP1, transmembrane domain of RXFP2) (Homo sapiens, UniProt Q8WXD0) (Q8WXD0 417-754 limits assumed, stated change not applied): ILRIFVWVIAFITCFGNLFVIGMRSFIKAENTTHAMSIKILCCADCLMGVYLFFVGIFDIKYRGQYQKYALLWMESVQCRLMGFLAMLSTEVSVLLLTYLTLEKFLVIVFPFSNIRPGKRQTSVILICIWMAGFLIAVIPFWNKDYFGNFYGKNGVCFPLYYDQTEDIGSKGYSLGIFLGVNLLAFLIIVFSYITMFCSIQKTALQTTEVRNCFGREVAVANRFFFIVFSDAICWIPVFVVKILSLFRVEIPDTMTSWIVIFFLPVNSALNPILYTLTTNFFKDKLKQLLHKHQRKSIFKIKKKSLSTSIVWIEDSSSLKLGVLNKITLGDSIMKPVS
Chain of chimera RXFP1-2 (extracellular domain of RXFP1, transmembrane domain of RXFP2) (Homo sapiens, UniProt Q8WXD0) (Q9HBX9 1-409, stated change not applied, further chain): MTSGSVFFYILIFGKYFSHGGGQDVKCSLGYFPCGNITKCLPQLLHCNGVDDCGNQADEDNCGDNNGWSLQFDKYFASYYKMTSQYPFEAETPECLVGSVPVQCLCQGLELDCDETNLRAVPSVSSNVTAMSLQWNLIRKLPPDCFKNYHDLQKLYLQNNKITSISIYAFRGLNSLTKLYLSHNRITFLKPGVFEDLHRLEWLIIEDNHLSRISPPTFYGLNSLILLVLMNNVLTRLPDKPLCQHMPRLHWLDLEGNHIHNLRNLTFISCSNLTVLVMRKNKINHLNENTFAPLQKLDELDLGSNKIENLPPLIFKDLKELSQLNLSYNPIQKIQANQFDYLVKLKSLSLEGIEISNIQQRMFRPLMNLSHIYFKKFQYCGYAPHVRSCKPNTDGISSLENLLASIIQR
Protocol: (§1) Fig. 2 6641 is an allosteric agonist of RXFP2. a HEK-RXFP2 cells co-treated with serial dilutions of INSL3 B dimer antagonist and 30 nM INSL3 or 0.28 µM 6641. HTRF cAMP dose-response inhibition curves were normalized to activity without antagonist co-treatment as 0% inhibition. b HTRF cAMP assay in HEK293T cells transiently transfected with WT or chimeric receptors. Chimera RXFP2-1 contains the extracellular domain of RXFP2 and the transmembrane domain of RXFP1, while chimera RXFP1-2 contains the extracellular domain of RXFP1 and the transmembrane domain of RXFP2. For each receptor, cAMP response induced by INSL3 and 6641 was normalized to FSK (2 µM) as 100% efficacy and DMSO vehicle as 0% efficacy. Emax and EC50 were calculated using four parameter nonlinear fit dose-response curves. Results are expressed as mean ± SEM of 3 independent experiments. Diagrams of the chimeric receptors were produced using GPCRdb.org[58], [59].
(§2) Complementary RXFP2-1 and RXFP1-2 chimeric receptors were used to further investigate the involvement of the RXFP2 extracellular and transmembrane domains on 6641 activity. RXFP2-1 has the extracellular domain of RXFP2 and transmembrane domain of RXFP1, and RXFP1-2 is its complement.
(§3) The HTRF Gs dynamic cAMP assay kit (CisBio, Bedford, MA) was used to measure intracellular cAMP accumulation in HEK293T cells (ATCC, Manassas, VA)[56]. […] The cell stock was verified mycoplasma free and authenticated by ATCC. Transient transfection was accomplished by treating cells in a 6-well plate with a mixture of 2 μg plasmid and 6 μL Lipofectamine 2000 (Invitrogen, Waltham, MA) per manufacturer’s protocol and incubating overnight. For cAMP measurement in 96-well format, HEK293T cells stably transfected with human RXFP2 (HEK-RXFP2), human RXFP1 (HEK-RXFP1), mouse Rxfp1 (HEK-Rxfp1) or transiently transfected with human RXFP1-RXFP2 chimeric receptors were seeded between 7500 and 30,000 cells per well, depending on cell line responsiveness, in serum-free DMEM medium and incubated overnight at 37 °C, 5% CO2. After 18 h, cells were treated with a titration of compound, 2 μM forskolin, or DMSO vehicle. Control wells were also treated with a titration of INSL3 (Phoenix Pharmaceuticals, Burlingame, CA) or human recombinant relaxin 2 (Peprotech, Cranbury, NJ). For the RXFP2 antagonist experiment, cells were co-treated with 0.28 μM compound or 30 nM INSL3 and a titration of the INSL3 B dimer antagonist[38],[39]. For the INSL3 allosteric modulation experiment, cells were co-treated with 0.025, 0.0025, or 0.00025 μM of compound and a titration of INSL3. Cells were incubated for 1 h at 37 °C, 5% CO2, and then kit cAMP-d2 and anti-cAMP antibody were added per manufacturer protocol. Plates were incubated for 1 h at room temperature and the signal was read on a CLARIOstar plate reader (BMG Labtech, Ortenberg, Germany) at 665 and 620 nm emission wavelengths.

[2] = test system: chimera RXFP1-2 (extracellular domain of RXFP1, transmembrane domain of RXFP2); test: as above; assay type: cell-based, human
Chain of chimera RXFP1-2 (extracellular domain of RXFP1, transmembrane domain of RXFP2) (Q8WXD0 417-754 limits assumed, change not shown): as the sequence (Q8WXD0 417-754 limits assumed, stated change not applied) above
Chain of chimera RXFP1-2 (extracellular domain of RXFP1, transmembrane domain of RXFP2) (Q9HBX9 1-409, change not shown, further chain): as the sequence (Q9HBX9 1-409, stated change not applied, further chain) above
Protocol: as §1, §2, §3

[3] = biological target: human LHCGR (Homo sapiens, UniProt P22888); test: HitHunter cAMP XS+ assay, cAMP Hunter cell line LHCGR; assay type: cell-based; details: for RLU: replicates (1),(2)
Chain of human LHCGR (P22888 27-699): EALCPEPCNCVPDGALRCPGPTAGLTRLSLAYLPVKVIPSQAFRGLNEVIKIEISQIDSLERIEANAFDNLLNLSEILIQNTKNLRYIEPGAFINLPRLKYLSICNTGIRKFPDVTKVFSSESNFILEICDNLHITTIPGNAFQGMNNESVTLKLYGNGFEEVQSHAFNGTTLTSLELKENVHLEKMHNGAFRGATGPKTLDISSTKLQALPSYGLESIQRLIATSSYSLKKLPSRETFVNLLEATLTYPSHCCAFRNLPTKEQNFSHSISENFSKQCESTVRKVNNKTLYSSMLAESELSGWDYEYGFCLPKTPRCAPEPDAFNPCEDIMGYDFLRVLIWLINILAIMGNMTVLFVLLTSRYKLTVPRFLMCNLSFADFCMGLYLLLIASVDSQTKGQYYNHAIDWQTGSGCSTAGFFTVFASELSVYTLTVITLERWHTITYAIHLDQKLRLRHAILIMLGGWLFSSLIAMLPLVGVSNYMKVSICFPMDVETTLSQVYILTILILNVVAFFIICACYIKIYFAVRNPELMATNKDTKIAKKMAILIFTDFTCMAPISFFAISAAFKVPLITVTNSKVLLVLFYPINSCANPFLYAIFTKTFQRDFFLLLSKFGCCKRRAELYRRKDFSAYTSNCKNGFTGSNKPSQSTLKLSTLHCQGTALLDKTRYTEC
Excerpt: Results are reported as raw RLU values and represent the
mean ± SEM of 2 technical replicates.

[4] = 6641, individual experiments, read-out: EC50 (1)-(3)

## O=C1Nc2ccc(-c3cc(C(F)(F)F)cc(C(F)(F)F)c3)cc2C(=O)N2CCN(C(=O)COc3ccc(OC(F)(F)F)cc3I)C[C@@H]12 [compound 6641]
[1]; [4]
  EC50: 19 nM and 14 nM
[1]; individual experiments, FSK (2 µM) = 100% efficacy, read-out: Emax (1)-(3)
  Emax: 96.5%
[1]; mean (± SEM) of 3, FSK (2 µM) = 100% efficacy, read-out: Emax (AVERAGE)
  Emax: 96.47 ± 0.43%
[2]; [4]
  EC50: 17 nM
[2]; individual experiments, FSK (2 µM) = 100% efficacy
  Emax (1)-(3): 95.72% and 97.22%
[3]; Hit Hunter cAMP assay
  cAMP response through LHCGR: did not result in an increase of cAMP level
[3]; Log [M] -4.70
  RLU: 1280 RLU and 1080 RLU
[3]; Log [M] -5.18
  RLU: 1000 RLU
[3]; Log [M] -5.65
  RLU: 1080 RLU and 1000 RLU
[3]; Log [M] -6.13
  RLU: 1080 RLU
[3]; Log [M] -6.61
  RLU: 1040 RLU
[3]; Log [M] -7.08
  RLU: 1200 RLU and 920 RLU
[3]; Log [M] -7.56
  RLU: 1000 RLU
[3]; Log [M] -8.04
  RLU: 960 RLU and 680 RLU
[3]; Log [M] -8.52
  RLU: 1040 RLU
[3]; Log [M] -8.99
  RLU: 960 RLU and 1040 RLU
